{
  "source": "paper PMC6874179",
  "about": "“Development of Macrocycle Kinase Inhibitors for ALK2 Using Fibrodysplasia Ossificans Progressiva‐Derived Endothelial Cells” (JBMR Plus, 2019)",
  "key": {"Solubility determination": {"assay": "Solubility determination", "assay_type": "physicochemical", "conditions": "kinetic from dmso stock, 2-hour equilibrium, room temperature", "experimental": "Test compound from 5 mM DMSO stock solution were diluted to 250 µM either in 50 mM PBS pH 7.4 or FaSSIF pH 6.5 in triplicate. DMSO final concentration was 5%. After a 2-hour equilibrium at room temperature and under shaking, samples were centrifuged at 3000g for 10 min at room temperature. A calibration curve was prepared in LC mobile phase from the 5 mM DMSO stock solution. Samples and calibration curve were analyzed by LC with UV detection."}, "p-Smad1/5 in 2H11 ECs": {"test_system": "p-Smad1/5 in 2H11 ECs", "assay": "Western blot of p-Smad1/5 in 2H11 endothelial cells", "assay_type": "cell-based, mouse", "conditions": "2H11 cells, compound 0.5μM; for Inhibition of BMP-6-induced p-Smad1/5: BMP-6 50 ng/mL; for Inhibition of BMP-9-induced p-Smad1/5: BMP-9 1 ng/mL", "experimental": "Compounds were added for 16 hours at 0.5μM before luciferase activity was measured.\nCells were seeded into 6-well plates and cultured till they reached confluence. Next, cells were stimulated as indicated and then washed with cold PBS. […] Electrophoresis was performed in 10% SDS/polyacrylamide gels. Separated proteins were transferred to nitrocellulose membranes (0.5 A at 100 V; in ice) for 1 hour. Blots were blocked in Tris-Buffered Saline solution containing 0.1% Tween 20 and 5% non-fat dry milk overnight at 4 °C, and immune-detection of specific proteins was carried out with primary antibodies (see above) followed by horseradish peroxidase-conjugated anti-mouse or anti-rabbit (GE Healthcare, Eindhoven, The Netherlands) secondary antibodies using an ECL system (Fisher Scientific, Landsmeer, The Netherlands)."}, "FOP ECFCs [1]": {"test_system": "FOP ECFCs", "assay": "Smad1/5 activation and ID-1/ID-3 expression in FOP ECFCs", "assay_type": "cell-based, human", "conditions": "compound 0.5μM; for Effect on activin A-induced activation of Smad1/5 and gene targets ID-1 and ID-3: activin A 50 ng/mL; for Effect on BMP-6-induced downstream signaling: BMP-6 50 ng/mL", "experimental": "Total RNA extraction was performed using NucleoSpin RNA II (Machery Nagel, Düren, Germany). There were 500 ng of RNA retro‐transcribed using RevertAid First Strand cDNA Synthesis Kits (Fisher Scientific, Landsmeer, The Netherlands), and real‐time reverse transcription‐PCR experiments were performed using SYBR Green (Bio‐Rad, Veenendaal, The Netherlands) and a Bio‐Rad CFX Connect device. A list of the oligonucleotides used can be found as online supplemental data.\n(§1) Cells were incubated for 21 days in chondrogenic medium containing BMP‐6 or activin A (50 ng/mL) and LDN‐193189, OD36, or OD52 at 0.5μM, prior to Alcian Blue staining. (B) Quantification of Fig. 6 A by absorbance, after solubilization with guanidine hydrochloride. (C) Chondrogenic gene expression analysis of collagen 2 (Col2), Sox9, Matrix metalloproteinase 13 (Mmp13), and collagen X (Col X) in ATDC5 cells corresponding to (A). (D) Western blot of a representative clone of FOP endothelial colony‐forming cells (ECFCs) incubated with LDN‐193189, OD36, or OD52 (0.5μM) prior to stimulation with BMP‐6 (50 ng/mL) or activin A (50 ng/mL). (E) Expression of the BMP target genes ID1 and ID3 by qPCR in FOP ECFCs stimulated with BMP‐6 (50 ng/mL) or activin A (50 ng/mL) in the presence of the indicated compounds at 0.5μM. (F) Alizarin Red solution staining on a representative clone of FOP ECFCs incubated under osteogenic conditions with BMP‐6 (50 ng/mL) or activin A (50 ng/mL) and the indicated compounds. (G) Quantification of Fig. 6 F by absorbance, after solubilization with cetylpyridinium. (H) Osteogenic genes Collagen 1 alpha 1 (Col1a1), Runx2, and osterix (Osx) expression in a representative clone of FOP ECFCs incubated under osteogenic conditions with BMP‐6 (50 ng/mL) or activin A (50 ng/mL) and LDN‐193189, OD36, or OD52 (0.5 μM). *p < 0.05, **p < 0.01, ***p < 0.001.\nCells were seeded into 6-well plates and cultured till they reached confluence. Next, cells were stimulated as indicated and then washed with cold PBS. Lysates were prepared using 2x Sample buffer (10% SDS, 62.5 mM Tris-HCl pH 6.8, 0.002 % Bromophenol Blue, 0.7135 M (5%) β-mercaptoethanol, 10 % glycerol) and boiled for 5 minutes before loading. Electrophoresis was performed in 10% SDS/polyacrylamide gels. Separated proteins were transferred to nitrocellulose membranes (0.5 A at 100 V; in ice) for 1 hour. Blots were blocked in Tris-Buffered Saline solution containing 0.1% Tween 20 and 5% non-fat dry milk overnight at 4 °C, and immune-detection of specific proteins was carried out with primary antibodies (see above) followed by horseradish peroxidase-conjugated anti-mouse or anti-rabbit (GE Healthcare, Eindhoven, The Netherlands) secondary antibodies using an ECL system (Fisher Scientific, Landsmeer, The Netherlands)."}, "Chromlog D": {"assay": "Chromlog D", "assay_type": "physicochemical", "description": "Supplement JBM4-3-na-s005.docx, table 3: Table S3. Solubility and metabolic clearance of selected macrocyclic inhibitors. | column: Chromlog D"}, "FOP ECFCs [2]": {"test_system": "FOP ECFCs", "assay": "Osteogenic differentiation (mineralization) of FOP ECFCs", "assay_type": "cell-based, human", "conditions": "osteogenic conditions, Alizarin Red; for Effect on activin A-induced osteogenic differentiation: activin A 50 ng/mL; for Effect on BMP-6-induced osteogenic differentiation: BMP-6 50 ng/mL", "experimental": "For mineralization assays, 5 × 10^4 ECs were seeded into 48‐well plates and incubated in osteogenic medium containing 10^−8M/L dexamethasone, 0.2mM/L ascorbic acid, and 10mM/L β‐glycerolphosphate in the presence of BMP/ TGF‐β ligands for 28 days. The medium was refreshed every 4 days. Afterwards, cells were washed twice with PBS and fixed with 3.7% formaldehyde for 5 min. Next, cells were washed twice with distilled water; measurement of calcium deposition was performed by Alizarin Red solution (ARS) staining, as previously described.16 Precipitates, originated from three independent ARS assays, were dissolved using 10% cetylpyridinium chloride, and absorbance was measured at 570 nm. Representative pictures were obtained using a Leica DMIL LED microscope (Leica, Wetzlar, Germany) with 10× magnification.\nas §1"}, "[3]": {"assay": "Microsomal incubations, mLM", "assay_type": "in vitro ADME", "conditions": "mouse, liver microsomes, pH 7.4; microsomes 0.5 mg/ml, 0.5 μM compound; read-out: Metabolic clearance mLM"}, "[4]": {"conditions": "PBS buffer, aqueous buffer, 50 mM PBS pH 7.4, 5% DMSO, read-out: Solubility in µM PBS"}, "[5]": {"conditions": "FaSSIF pH 6.5, 5% DMSO, read-out: Solubility in µM FaSSIF"}},
  "note": "Where two headings read alike, the source gives them in different places.",
  "data": [
    {"smiles": "c1ccc2c(-c3cnn4cc(-c5ccc(N6CCNCC6)cc5)cnc34)ccnc2c1", "note": "[LDN-193189, reference compound]", "values": [
      {"measurement": "solubility at 2 h", "setting": "Solubility determination; [4]", "result": 5, "unit": "µM"},
      {"measurement": "solubility at 2 h", "setting": "Solubility determination; [5]", "result": 49, "unit": "µM"},
      {"measurement": "Inhibition of BMP-6-induced p-Smad1/5", "setting": "p-Smad1/5 in 2H11 ECs", "result": "efficiently blocked"},
      {"measurement": "Inhibition of BMP-9-induced p-Smad1/5", "setting": "p-Smad1/5 in 2H11 ECs", "result": "efficiently blocked"},
      {"measurement": "Effect on activin A-induced activation of Smad1/5 and gene targets ID-1 and ID-3", "setting": "FOP ECFCs [1]", "result": "inhibited"},
      {"measurement": "chromatographic logD", "setting": "Chromlog D", "result": 2.7},
      {"measurement": "Effect on activin A-induced osteogenic differentiation", "setting": "FOP ECFCs [2]", "result": "inhibited"},
      {"measurement": "microsomal CLint at 0.5 μM", "setting": "[3]", "result": 95, "unit": "µL/min/mg"}
    ]},
    {"smiles": "Clc1cc2cc(c1)-c1cnn3ccc(nc13)NCCOCCO2", "note": "[OD36]", "values": [
      {"measurement": "solubility at 2 h", "setting": "Solubility determination; [4]", "result": 2, "unit": "µM"},
      {"measurement": "solubility at 2 h", "setting": "Solubility determination; [5]", "result": 212, "unit": "µM"},
      {"measurement": "Inhibition of BMP-6-induced p-Smad1/5", "setting": "p-Smad1/5 in 2H11 ECs", "result": "only inhibited BMP‐9‐induced p‐Smad1/5"},
      {"measurement": "Inhibition of BMP-9-induced p-Smad1/5", "setting": "p-Smad1/5 in 2H11 ECs", "result": "only inhibited BMP‐9‐induced p‐Smad1/5"},
      {"measurement": "Effect on BMP-6-induced downstream signaling", "setting": "FOP ECFCs [1]", "result": "less effective"},
      {"measurement": "Effect on activin A-induced activation of Smad1/5 and gene targets ID-1 and ID-3", "setting": "FOP ECFCs [1]", "result": "completely prevented"},
      {"measurement": "chromatographic logD", "setting": "Chromlog D", "result": 5.4},
      {"measurement": "Effect on BMP-6-induced osteogenic differentiation", "setting": "FOP ECFCs [2]", "result": "modest effect"},
      {"measurement": "Effect on activin A-induced osteogenic differentiation", "setting": "FOP ECFCs [2]", "result": "efficiently blocked"},
      {"measurement": "microsomal CLint at 0.5 μM", "setting": "[3]", "result": 207, "unit": "µL/min/mg"}
    ]},
    {"smiles": "Cc1cc2cc(c1)-c1cnn3ccc(nc13)NCCNC(=O)CCN(C)C2", "note": "[OD52]", "values": [
      {"measurement": "solubility at 2 h", "setting": "Solubility determination; [4]", "result": 140, "unit": "µM"},
      {"measurement": "solubility at 2 h", "setting": "Solubility determination; [5]", "result": 240, "unit": "µM"},
      {"measurement": "Inhibition of BMP-6-induced p-Smad1/5", "setting": "p-Smad1/5 in 2H11 ECs", "result": "only inhibited BMP‐9‐induced p‐Smad1/5"},
      {"measurement": "Inhibition of BMP-9-induced p-Smad1/5", "setting": "p-Smad1/5 in 2H11 ECs", "result": "only inhibited BMP‐9‐induced p‐Smad1/5"},
      {"measurement": "Effect on BMP-6-induced downstream signaling", "setting": "FOP ECFCs [1]", "result": "less effective"},
      {"measurement": "Effect on activin A-induced activation of Smad1/5 and gene targets ID-1 and ID-3", "setting": "FOP ECFCs [1]", "result": "completely prevented"},
      {"measurement": "chromatographic logD", "setting": "Chromlog D", "result": 3.9},
      {"measurement": "Effect on BMP-6-induced osteogenic differentiation", "setting": "FOP ECFCs [2]", "result": "modest effect"},
      {"measurement": "Effect on activin A-induced osteogenic differentiation", "setting": "FOP ECFCs [2]", "result": "efficiently blocked"},
      {"measurement": "microsomal CLint at 0.5 μM", "setting": "[3]", "result": 84, "unit": "µL/min/mg"}
    ]}
  ]
}
